These results are taken from patent publication US20230278981A1, “DICHLOROPHENOL HSD17B13 INHIBITORS AND USES THEREOF” (INIPHARM, INC., priority 2020, published 2023).

The IC50 is the concentration that gives 50% inhibition. A low value points to greater potency in that assay.

This test has as its target HSD17B13 (Homo sapiens (Human), UniProt Q7Z5P4). In words: LC/MS estrone detection assay: conversion of estradiol to estrone by HSD17B13. Format: biochemical. The following applies: 4 μM estradiol, 6 mM NAD+, 30 nM HSD17B13 enzyme (E. coli expressed His-tagged), 2 hours at 26.5° C. As for the experimental part:
The liquid chromatography/mass spectrometry (LC/MS) estrone detection assay monitors the conversion of estradiol to estrone by HSD17B13. This assay was undertaken in a 96wp format (Eppendorf deep well Plate 96/500) in an 80 μl reaction volume containing: 4 μM of Estradiol (E2; Cayman; Ser. No. 10/006,315), 6 mM NAD+(Sigma; #N0623) and 30 nM HSD17B13 enzyme (in-house; E. coli expressed His-tagged, purified, soluble protein) in a reaction containing […] potassium phosphate buffer pH 7.4, with 0.5% vehicle (DMSO). Reactions were incubated for 2 hours at 26.5° C., and estradiol (E2) conversion to estrone (E1) was quantitated by LC-MS/MS based analyte detection for both E2 and E1 using LCMS grade reagents.
Reactions were terminated by the addition of two volumes of acetonitrile (MeCN; LCMS grade; CAS #75/05/8) containing deuterated (D4)-E1 used as internal standard (Clear Synth; #CS-T-54273; 500 ng/mL final concentration). Samples were applied to pre-prepared Bond Elut-C18 extraction cartridges (3 mL; Agilent; Ser. No. 12/102,028), washed and eluted in MeCN. Eluates were dried under nitrogen and re-suspended in 60% methanol (LCMS grade methanol; CAS #67/56/1) before submission for analysis. Aqueous linearity for E2 and E1 were included for quantification.
Analysis of samples was undertaken on a XBridge BEH C18 column (Waters; #186003033) using 0.1% Diethyl Amine in MeCN (mobile phase A; DEA CAS #109-89-7) and 0.1% Diethyl Amine in milli-Q water (mobile phase B) in a 3 min gradient allowing 25% B. Analytes were detected in negative mode using MRM analysis, with E2 having a RT of 1.85 min and E1 having a RT of 2 min. Activity of the enzyme, in the absence of NAD^+, was used to evaluate specificity of conversion. Enzyme activity in the presence of test samples was expressed as a percentage of the uninhibited enzyme activity, and plotted versus inhibitor concentration. Non-linear regression was performed using a four-parameter logistic model and GraphPad Prism software (GraphPad Software, La Jolla, Calif.). All assessments were undertaken in duplicate evaluations and pooled during extraction process and subsequently injected as duplicates for LC-MS/MS analysis.

Bounds are passed on as bounds.

Chain of HSD17B13 (Q7Z5P4 20-300): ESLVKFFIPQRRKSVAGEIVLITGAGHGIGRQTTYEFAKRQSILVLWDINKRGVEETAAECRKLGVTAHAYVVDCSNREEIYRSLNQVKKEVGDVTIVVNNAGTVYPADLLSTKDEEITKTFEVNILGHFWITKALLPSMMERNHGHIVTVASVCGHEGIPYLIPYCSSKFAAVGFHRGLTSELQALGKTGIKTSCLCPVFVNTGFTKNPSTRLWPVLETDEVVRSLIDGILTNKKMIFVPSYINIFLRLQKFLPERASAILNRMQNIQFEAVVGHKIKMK

The compound `O=C(Nc1ccnc2[nH]c(=O)n(Cc3ccccc3OC(F)(F)F)c(=O)c12)c1cc(Cl)c(O)c(Cl)c1` [Example 95, 3,5-dichloro-N-(2,4-dioxo-3-(2-(trifluoromethoxy)benzyl)-1,2,3,4-tetrahydropyrido[2,3-d]pyrimidin-5-yl)-4-hydroxybenzamide] had an IC50 of 0.1 to 0.5 µM. With `O=C(Nc1scnc1C(=O)NCc1ccccc1C(F)(F)F)c1cc(Cl)c(O)c(Cl)n1` [Example 192, 5-(4,6-dichloro-5-hydroxypicolinamido)-N-(2-(trifluoromethyl)benzyl)thiazole-4-carboxamide], the IC50 was 0.1 to 0.5 µM. In the case of `O=C(Nc1cccc2ncn(Cc3nncs3)c(=O)c12)c1cc(Cl)c(O)c(Cl)c1` [Example 14, N-(3-((1,3,4-thiadiazol-2-yl)methyl)-4-oxo-3,4-dihydroquinazolin-5-yl)-3,5-dichloro-4-hydroxybenzamide], the IC50 was 1 to 10 µM. As to `O=C(Nc1scnc1C(=O)NCc1ccccc1OC(F)(F)F)c1cc(Cl)c(O)c(Cl)c1` [Example 32, 5-(3,5-dichloro-4-hydroxybenzamido)-N-(2-(trifluoromethoxy)benzyl)thiazole-4-carboxamide], the IC50 is at most 0.1 µM. For the compound `O=C(Nc1cccc2ncn(CC3CC3)c(=O)c12)c1cc(Cl)c(O)c(Cl)c1` [Example 3, 3,5-dichloro-N-(3-(cyclopropylmethyl)-4-oxo-3,4-dihydroquinazolin-5-yl)-4-hydroxybenzamide], the IC50 fell in the range of 0.1 to 0.5 µM.

For the compound `Cc1ccc(NC(=O)c2cc(Cl)c(O)c(Cl)c2)c2c(=O)n(Cc3ccccc3OC(F)(F)F)c(C(F)(F)F)nc12` [Example 112, 3,5-dichloro-4-hydroxy-N-(8-methyl-4-oxo-3-(2-(trifluoromethoxy)benzyl)-2-(trifluoromethyl)-3,4-dihydroquinazolin-5-yl)benzamide], the IC50 was in the range of 0.1 to 0.5 µM. `CS(=O)(=O)c1ccc(Cn2cnc3cccc(NC(=O)c4cc(Cl)c(O)c(Cl)c4)c3c2=O)cc1` [Example 59, 3,5-dichloro-4-hydroxy-N-(3-(4-(methylsulfonyl)benzyl)-4-oxo-3,4-dihydroquinazolin-5-yl)benzamide] displayed an IC50 of 1 to 10 µM.

The compound `CC(C)(C)n1ccc(Cn2cnc3cccc(NC(=O)c4cc(Cl)c(O)c(Cl)c4)c3c2=O)n1` [Example 52, N-(3-((1-(tert-butyl)-1H-pyrazol-3-yl)methyl)-4-oxo-3,4-dihydroquinazolin-5-yl)-3,5-dichloro-4-hydroxybenzamide] yielded an IC50 of 0.5 to 1 µM. `O=C(Nc1cccc2ncn(Cc3nncs3)c(=O)c12)c1cc(Cl)c(O)c(Cl)c1` [Example 39, N-(3-((1,3,4-thiadiazol-2-yl)methyl)-4-oxo-3,4-dihydroquinazolin-5-yl)-3,5-dichloro-4-hydroxybenzamide] had an IC50 of 1 to 10 µM. The compound `Cc1nc2c(Cl)ccc(NC(=O)c3cc(Cl)c(O)c(Cl)n3)c2c(=O)n1Cc1ccccc1C(F)(F)F` [Example 170, 4,6-dichloro-N-(8-chloro-2-methyl-4-oxo-3-(2-(trifluoromethyl)benzyl)-3,4-dihydroquinazolin-5-yl)-5-hydroxypicolinamide] displayed an IC50 of 0.1 to 0.5 µM. Regarding `CC(C)(C)n1ccc(Cn2cnc3cccc(NC(=O)c4cc(Cl)c(O)c(Cl)n4)c3c2=O)n1` [Example 62, N-(3-((1-(tert-butyl)-1H-pyrazol-3-yl)methyl)-4-oxo-3,4-dihydroquinazolin-5-yl)-4,6-dichloro-5-hydroxypicolinamide], the IC50 lay within 0.1 to 0.5 µM. To `O=C(Nc1cccc2ncn(Cc3ccc(OCCO)cc3)c(=O)c12)c1cc(Cl)c(O)c(Cl)c1` [Example 58, 3,5-dichloro-4-hydroxy-N-(3-(4-(2-hydroxyethoxy)benzyl)-4-oxo-3,4-dihydroquinazolin-5-yl)benzamide] belongs 0.1 to 0.5 µM; to `N#Cc1ccccc1Cn1cnc2cccc(NC(=O)c3cc(Cl)c(O)c(Cl)c3)c2c1=O` [Example 53, 3,5-dichloro-N-(3-(2-cyanobenzyl)-4-oxo-3,4-dihydroquinazolin-5-yl)-4-hydroxybenzamide], at most 0.1 µM.
